# Data: ChEMBL document CHEMBL1142415, “5-tert-butyl-N-pyrazol-4-yl-4,5,6,7-tetrahydrobenzo[d]isoxazole-3-carboxamide derivatives as novel potent inhibitors of Mycobacterium tuberculosis pantothenate synthetase: initiating a quest for new antitubercular drugs” (J Med Chem, 2008)
# Legend:
# Pantothenate synthetase = molecular target: T1, Pantothenate synthetase (Mycobacterium tuberculosis, UniProt P9WIL5); test: Inhibition of Mycobacterium tuberculosis pantothenate synthetase
# T1 sequence (P9WIL5 whole entry): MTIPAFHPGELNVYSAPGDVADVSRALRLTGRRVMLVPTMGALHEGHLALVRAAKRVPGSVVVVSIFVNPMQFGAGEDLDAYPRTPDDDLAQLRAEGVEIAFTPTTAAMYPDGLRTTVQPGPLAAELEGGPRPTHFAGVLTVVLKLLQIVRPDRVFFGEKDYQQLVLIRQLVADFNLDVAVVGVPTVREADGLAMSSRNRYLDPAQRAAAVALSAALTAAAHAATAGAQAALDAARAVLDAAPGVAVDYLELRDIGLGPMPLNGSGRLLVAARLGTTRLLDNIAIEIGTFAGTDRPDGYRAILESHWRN
# [1] = molecular target: T2, Pantothenate synthetase (Mycobacterium tuberculosis) (UniProt P9WIL5); test: Inhibition of Mycobacterium tuberculosis pantothenate synthetase at 100 uM
# T2 sequence (whole entry): T1 sequence (P9WIL5 whole entry)
# [2] = tested on: Mycobacterium tuberculosis; test: Antibacterial activity against Mycobacterium tuberculosis at 128 uM by LORA assay; format: functional
# [3] = tested on: Mycobacterium tuberculosis; test: Antibacterial activity against Mycobacterium tuberculosis at 128 uM by MABA assay; format: functional
SMILES,IC50 (Pantothenate synthetase) [µM],inhibition [1] [%],inhibition at 128 µM [2] [%],inhibition at 128 µM [3] [%]
CC(C)(C)C1CCc2onc(C(=O)Nc3cnn(Cc4ccccc4Br)c3)c2C1 (centres undefined),0.14,94,24,73
Cc1ccccc1Cn1cc(NC(=O)c2noc3c2CC(C(C)(C)C)CC3)cn1 (centres undefined),0.12,89,15,46
CC(C)(C)C1CCc2onc(C(=O)Nc3cnn(C(=O)c4c(Cl)cc(Cl)cc4Cl)c3)c2C1 (centres undefined),–,17,26,34
CC(C)(C)C1CCc2onc(C(=O)Nc3cnn(Cc4ccc(F)cc4)c3)c2C1 (centres undefined),0.15,98,0,0
COC(=O)c1ccc(Cn2cc(NC(=O)c3noc4c3CC(C(C)(C)C)CC4)cn2)cc1 (centres undefined),0.16,100,0,48
CC(C)(C)C1CCc2onc(C(=O)Nc3cnn(Cc4ccc(F)cc4F)c3)c2C1 (centres undefined),0.13,100,47,56
CC(C)(C)C1CCc2onc(C(=O)Nc3cnn(Cc4ccc(Cl)cc4)c3)c2C1 (centres undefined),0.14,98,–,–
CC(C)(C)C1CCc2onc(C(=O)Nc3cnn(Cc4ccc(C(=O)NCc5ccccc5)cc4)c3)c2C1 (centres undefined),0.21,82,46,54
CC(C)(C)C1CCc2onc(C(=O)Nc3cn[nH]c3)c2C1 (centres undefined),61,43,4,60
CC(C)(C)C1CCc2onc(C(=O)Nc3cnn(Cc4ccc(C(=O)O)cc4)c3)c2C1 (centres undefined),0.46,99,2,41
CC(C)(C)C1CCc2onc(C(=O)O)c2C1 (centres undefined),–,12,11,5
CC(C)(C)C1CCc2onc(C(=O)Nc3cnn(Cc4ccc(C(=O)NCCc5ccccc5)cc4)c3)c2C1 (centres undefined),0.14,78,11,19
CC(C)(C)C1CCc2onc(C(=O)Nc3cnn(Cc4ccccc4I)c3)c2C1 (centres undefined),0.16,84,12,70
COc1ccc(Cc2noc(NC(=O)c3noc4c3CC(C(C)(C)C)CC4)c2C(N)=O)cc1 (centres undefined),7.13,79,14,14
CC(C)(C)C1CCc2onc(C(=O)Nc3cnn(Cc4ccc5ccccc5c4)c3)c2C1 (centres undefined),0.09,97,–,43
O=C(Nc1cnn(Cc2ccc(Cl)cc2Cl)c1)c1noc2c1CCCC2,–,18,53,70
CC(C)(C)OC(=O)c1ccc(Cn2cc(NC(=O)c3noc4c3CC(C(C)(C)C)CC4)cn2)cc1 (centres undefined),0.25,79,–,–
CC(C)(C)C1CCc2onc(C(=O)Nc3cnn(Cc4ccccc4)c3)c2C1 (centres undefined),0.097,100,62,84
